This assay deals with T1, PD-1/PD-L1 (Homo sapiens, UniProt Q9NZQ7).
T1 construct: TVMV protease site linker (C); made in house; host or cells: HEK293T cells
The assay is described as follows: PD-1/PD-L1 Homogenous Time-Resolved Fluorescence (HTRF) binding assay. As to conditions: PD-L1-His (10 nM) pre-incubated with inhibitor 15 m, then PD-1-Ig (20 nM). The source says: Methods for Testing the Ability of Macrocyclic Peptides to Compete for the Binding of PD-1 to PD-L1 Using Homogenous Time-Resolved Fluorescence (HTRF) Binding Assays
The ability of the compounds of formula (I) to bind to PD-L1 was investigated using a PD-1/PD-L1 Homogenous Time-Resolved Fluorescence (HTRF) binding assay.
Homogenous Time-Resolved Fluorescence (HTRF) Binding Assay
The interaction of PD-1 and PD-L1 can be assessed using soluble, purified preparations of the extracellular domains of the two proteins. The PD-1 and PD-L1 protein extracellular domains were expressed as fusion proteins with detection tags, for PD-1, the tag was the Fc portion of Immunoglobulin (PD-1-Ig) and for PD-L1 it was the 6 histidine motif (PD-L1-His). All binding studies were performed in an HTRF assay buffer consisting of dPBS supplemented with 0.1% […] bovine serum albumin and 0.05% (v/v) Tween-20. […] HTRF detection was achieved using europium crypate-labeled anti-Ig (1 nM final) and allophycocyanin (APC) labeled anti-His (20 nM final). Antibodies were diluted in HTRF detection buffer and 5 μl was dispensed on top of the binding reaction. The reaction mixture was allowed to equilibrate for 30 minutes and the resulting signal (665 nm/620 nm ratio) was obtained using an EnVision fluorometer. Additional binding assays were established between the human proteins PD-1-Ig/PD-L2-His (20 & 5 nM, respectively) and CD80-His/PD-L1-Ig (100 & 10 nM, respectively).
Recombinant Proteins: Human PD-1 (25-167) with a C-terminal human Fc domain of immunoglobulin G (Ig) epitope tag [hPD-1 (25-167)-3S-IG] and human PD-L1 (18-239) with a C-terminal His epitope tag [hPD-L1(18-239)-TVMV-His] were expressed in HEK293T cells and purified sequentially by ProteinA affinity chromatography and size exclusion chromatography. Human PD-L2-His and CD80-His was obtained through commercial sources.
Table 1 lists the IC50 values for representative examples of this disclosure measured in the PD-1/PD-L1 Homogenous Time-Resolved Fluorescence (HTRF) binding assay.
(Time-resolved FRET reads energy transfer from a long-lived donor to a nearby acceptor.)

The text below walks through data of US20240261367A1, “CYCLIC PEPTIDE IMMUNOMODULATORS” (priority 2021, published 2024).

The term IC50 denotes the concentration that gives 50% inhibition.

T1 sequence (Q9NZQ7 18-239): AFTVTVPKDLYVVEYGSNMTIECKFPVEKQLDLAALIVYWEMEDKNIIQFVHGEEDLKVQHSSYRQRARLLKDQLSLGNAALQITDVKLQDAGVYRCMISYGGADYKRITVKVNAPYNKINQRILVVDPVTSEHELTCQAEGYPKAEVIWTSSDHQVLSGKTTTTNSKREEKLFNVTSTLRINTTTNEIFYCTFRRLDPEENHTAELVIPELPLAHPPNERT

Consider `CCCC[C@H]1C(=O)N(C)[C@@H](CCCC)C(=O)N[C@@H](CC(C)C)C(=O)N[C@H](C(=O)NCC(=O)N[C@@H](Cc2cn(CCOCCOCCOCCOCCOCCOCCOCCOCCOCCOCCOCCNC(=O)CC[C@H](NC(=O)CCCCCCCCCCCCCCCCC(=O)OC)C(=O)OC)nn2)C(=O)OC)CSCC(=O)N[C@@H](Cc2ccc(O)cc2)C(=O)N(C)[C@@H](C)C(=O)N[C@@H](CC(N)=O)C(=O)N2CCC[C@H]2C(=O)N[C@@H](CNC(=O)OC(C)(C)C)C(=O)N[C@@H](CC(C)C)C(=O)N2C[C@H](O)C[C@H]2C(=O)N[C@@H](Cc2c[nH]c3ccccc23)C(=O)N[C@@H](CCNC(=O)OC(C)(C)C)C(=O)N[C@@H](Cc2cn(CC(=O)OC)c3ccccc23)C(=O)N1C` [Example 2001], for which the IC50 turned out to be 170 nM. In other words, the sub-micromolar range.
In the case of `CCCC[C@H]1C(=O)N(C)[C@@H](CCCC)C(=O)N[C@@H](CC(C)C)C(=O)N[C@H](C(=O)NCC(=O)N[C@@H](Cc2cn(CCOCCOCCOCCOCCOCCOCCOCCOCCOCCOCCOCCNC(=O)CC[C@H](NC(=O)CCCCCCCCCCCCCCCCC(=O)O)C(=O)O)nn2)C(=O)OC)CSCC(=O)N[C@@H](Cc2ccc(O)cc2)C(=O)N(C)[C@@H](C)C(=O)N[C@@H](CC(N)=O)C(=O)N2CCC[C@H]2C(=O)N[C@@H](CN)C(=O)N[C@@H](CC(C)C)C(=O)N2C[C@H](O)C[C@H]2C(=O)N[C@@H](Cc2c[nH]c3ccccc23)C(=O)N[C@@H](CCN)C(=O)N[C@@H](Cc2cn(CC(=O)OC)c3ccccc23)C(=O)N1C` [Example 3001], the 50% inhibitory concentration (IC50) amounted to 10 nM. Compared with the last compound, the IC50 is about 17-fold lower.
`CCCC[C@H]1C(=O)N(C)[C@@H](CCCC)C(=O)N[C@@H](CC(C)C)C(=O)N[C@H](C(=O)NCC(=O)N[C@@H](Cc2cn(CCOCCOCCOCCOCCOCCOCCOCCOCCOCCOCCOCCNC(=O)CC[C@H](NC(=O)CCCCCCCCCCCCCCCCC(=O)O)C(=O)O)nn2)C(=O)OC)CSCC(=O)N[C@@H](Cc2ccc(O)cc2)C(=O)N(C)[C@@H](C)C(=O)N[C@@H](CC(N)=O)C(=O)N2CCC[C@H]2C(=O)N[C@@H](CN)C(=O)N[C@@H](CC(C)C)C(=O)N2C[C@H](O)C[C@H]2C(=O)N[C@@H](Cc2c[nH]c3ccccc23)C(=O)N[C@@H](CCN)C(=O)N[C@@H](Cc2cn(CC(=O)OC)c3ccccc23)C(=O)N1C` [Example 3002] showed an IC50 of 12 nM.
Compound `CCCC[C@H]1C(=O)N(C)[C@@H](CCCC)C(=O)N[C@@H](CC(C)C)C(=O)N[C@H](C(=O)NCC(=O)N[C@@H](Cc2cn(CCOCCOCCOCCOCCOCCOCCOCCOCCOCCOCCOCCNC(=O)CC[C@H](NC(=O)CCCCCCCCCCCCCCCCC(=O)O)C(=O)OC)nn2)C(=O)O)CSCC(=O)N[C@@H](Cc2ccc(O)cc2)C(=O)N(C)[C@@H](C)C(=O)N[C@@H](CC(N)=O)C(=O)N2CCC[C@H]2C(=O)N[C@@H](CN)C(=O)N[C@@H](CC(C)C)C(=O)N2C[C@H](O)C[C@H]2C(=O)N[C@@H](Cc2c[nH]c3ccccc23)C(=O)N[C@@H](CCN)C(=O)N[C@@H](Cc2cn(CC(=O)OC)c3ccccc23)C(=O)N1C` [Example 3003] displayed an IC50 of 9.3 nM.
Compound `CCCC[C@H]1C(=O)N(C)[C@@H](CCCC)C(=O)N[C@@H](CC(C)C)C(=O)N[C@H](C(=O)NCC(=O)N[C@@H](Cc2cn(CCOCCOCCOCCOCCOCCOCCOCCOCCOCCOCCOCCNC(=O)CC[C@H](NC(=O)CCCCCCCCCCCCCCCCC(=O)O)C(=O)OC)nn2)C(=O)OC)CSCC(=O)N[C@@H](Cc2ccc(O)cc2)C(=O)N(C)[C@@H](C)C(=O)N[C@@H](CC(N)=O)C(=O)N2CCC[C@H]2C(=O)N[C@@H](CN)C(=O)N[C@@H](CC(C)C)C(=O)N2C[C@H](O)C[C@H]2C(=O)N[C@@H](Cc2c[nH]c3ccccc23)C(=O)N[C@@H](CCN)C(=O)N[C@@H](Cc2cn(CC(=O)OC)c3ccccc23)C(=O)N1C` [Example 3004] came in with a half-maximal inhibitory concentration (IC50) of 21 nM.
In turn, `CCCC[C@H]1C(=O)N(C)[C@@H](CCCC)C(=O)N[C@@H](CC(C)C)C(=O)N[C@H](C(=O)NCC(=O)N[C@@H](Cc2cn(CCOCCOCCOCCOCCOCCOCCOCCOCCOCCOCCOCCNC(=O)CC[C@H](NC(=O)CCCCCCCCCCCCCCCCC(=O)O)C(=O)O)nn2)C(=O)O)CSCC(=O)N[C@@H](Cc2ccc(O)cc2)C(=O)N(C)[C@@H](C)C(=O)N[C@@H](CC(N)=O)C(=O)N2CCC[C@H]2C(=O)N[C@@H](CN)C(=O)N[C@@H](CC(C)C)C(=O)N2C[C@H](O)C[C@H]2C(=O)N[C@@H](Cc2c[nH]c3ccccc23)C(=O)N[C@@H](CCNC(=O)OC)C(=O)N[C@@H](Cc2cn(CC(=O)O)c3ccccc23)C(=O)N1C` [Example 5001] came in with an IC50 of 0.58 nM.
Turning to `CCCC[C@H]1C(=O)N(C)[C@@H](CCCC)C(=O)N[C@@H](CC(C)C)C(=O)N[C@H](C(=O)NCC(=O)N[C@@H](Cc2cn(CCOCCOCCOCCOCCOCCOCCOCCOCCOCCOCCOCCNC(=O)CC[C@H](NC(=O)CCCCCCCCCCCCCCCCC(=O)O)C(=O)O)nn2)C(=O)OC)CSCC(=O)N[C@@H](Cc2ccc(O)cc2)C(=O)N(C)[C@@H](C)C(=O)N[C@@H](CC(N)=O)C(=O)N2CCC[C@H]2C(=O)N[C@@H](CN)C(=O)N[C@@H](CC(C)C)C(=O)N2C[C@H](O)C[C@H]2C(=O)N[C@@H](Cc2c[nH]c3ccccc23)C(=O)N[C@@H](CCN)C(=O)N[C@@H](Cc2cn(CC(=O)O)c3ccccc23)C(=O)N1C` [Example 6003], the IC50 worked out at 5.5 nM.
`CCCC[C@H]1C(=O)N(C)[C@@H](CCCC)C(=O)N[C@@H](CC(C)C)C(=O)N[C@H](C(=O)NCC(=O)N[C@@H](Cc2cn(CCOCCOCCOCCOCCOCCOCCOCCOCCOCCOCCOCCNC(=O)CC[C@H](NC(=O)CCCCCCCCCCCCCCCCC(=O)OC)C(=O)O)nn2)C(=O)O)CSCC(=O)N[C@@H](Cc2ccc(O)cc2)C(=O)N(C)[C@@H](C)C(=O)N[C@@H](CC(N)=O)C(=O)N2CCC[C@H]2C(=O)N[C@@H](CNC(=O)OCC)C(=O)N[C@@H](CC(C)C)C(=O)N2C[C@H](O)C[C@H]2C(=O)N[C@@H](Cc2c[nH]c3ccccc23)C(=O)N[C@@H](CCN)C(=O)N[C@@H](Cc2cn(CC(=O)O)c3ccccc23)C(=O)N1C` [Example 7001] came in with an IC50 of 53 nM. This IC50 is about 9.6-fold higher than that of the compound before.
The compound `CCCC[C@H]1C(=O)N(C)[C@@H](CCCC)C(=O)N[C@@H](CC(C)C)C(=O)N[C@H](C(=O)NCC(=O)N[C@@H](Cc2cn(CCOCCOCCOCCOCCOCCOCCOCCOCCOCCOCCOCCNC(=O)CC[C@H](NC(=O)CCCCCCCCCCCCCCCCC(=O)OC)C(=O)O)nn2)C(=O)O)CSCC(=O)N[C@@H](Cc2ccc(O)cc2)C(=O)N(C)[C@@H](C)C(=O)N[C@@H](CC(N)=O)C(=O)N2CCC[C@H]2C(=O)N[C@@H](CNC(=O)OCc2oc(=O)oc2C)C(=O)N[C@@H](CC(C)C)C(=O)N2C[C@H](O)C[C@H]2C(=O)N[C@@H](Cc2c[nH]c3ccccc23)C(=O)N[C@@H](CCN)C(=O)N[C@@H](Cc2cn(CC(=O)O)c3ccccc23)C(=O)N1C` [Example 7003] came in with an IC50 of 7.4 nM.
In turn, `CCCC[C@H]1C(=O)N(C)[C@@H](CCCC)C(=O)N[C@@H](CC(C)C)C(=O)N[C@H](C(=O)NCC(=O)N[C@@H](Cc2cn(CCOCCOCCOCCOCCOCCOCCOCCOCCOCCOCCOCCNC(=O)CC[C@H](NC(=O)CCCCCCCCCCCCCCCCC(=O)OC)C(=O)OC)nn2)C(=O)O)CSCC(=O)N[C@@H](Cc2ccc(O)cc2)C(=O)N(C)[C@@H](C)C(=O)N[C@@H](CC(N)=O)C(=O)N2CCC[C@H]2C(=O)N[C@@H](CNC(=O)OCc2oc(=O)oc2C)C(=O)N[C@@H](CC(C)C)C(=O)N2C[C@H](O)C[C@H]2C(=O)N[C@@H](Cc2c[nH]c3ccccc23)C(=O)N[C@@H](CCN)C(=O)N[C@@H](Cc2cn(CC(=O)O)c3ccccc23)C(=O)N1C` [Example 7004] had an IC50 of 6.9 nM.
